Data reported in patent US20060258703A1, “Remedy for pruritus comprising piperidine derivative as the active ingredient” (ONO PHARMACEUTICAL CO., LTD., priority 2003, published 2006).

Test system: ovalbumin-induced eye scratching behavior in actively sensitized male Hartley guinea pigs
Test: inhibitory effect on eye itching using albumin induced eye itching model
Type: in vivo, guinea pig
Details: for number of eye scratching times / eye scratching behavior inhibition ratio: 10 μL/eye instilled 30 min before ovalbumin, n=8; for number of eye scratching times: counted for 60 min, average; for eye scratching behavior inhibition ratio: ratio to control (average)
Procedure: The inhibitory effect on eye itching of piperidine derivatives of the present invention was studied using albumin induced eye itching model.
1. The test of inhibitory effect on eye itching using albumin induced eye itching model
Aluminum hydroxide gel absorption ovalbumin (20 μg/mL)was dissolved in physiological saline solution, each solution ([…]) was injected subconjunctivally to the both eyeballs of five-week-old male Hartley guinea pigs to sensitize them actively. 14 days after sensitization, 1.0% (W/V) of ovalbumin physiological saline solution was instilled into both their eyes, 10 μL/eye, respectively.
As test compounds, a suspension of 0.01% (W/V) and 0.1% (W/V) of {4-cyano-4-[3-(cyclopentyloxy)-4-(difluoromethoxy)phenyl]piperidine-1-yl}acetic acid monohydrate (hereinafter, it is the compound A) in 0.1% hydroxypropylmethylcellulose was prepared and it was instilled into both eyes of the above-mentioned guinea pigs, 10 μL/eye, respectively, 30 minutes before the instillation of ovalbumin. 0.1% hydroxypropylmethylcellulose was used as control.
The behavior of guinea pigs for 60 minutes after ovalbumin instillation was video recorded. The inhibitory effect on eye itching was evaluated by counting each number of eye scratching times in case of instillation of each test compound solution and control. […] In addition, the number of example is eight. eye scratching behavior inhibition ratio=100−([the number of eye scratching times of the test compound]÷[the number of eye scratching times of control])×100

N#CC1(c2ccc(OC(F)F)c(OC3CCCC3)c2)CCN(CC(=O)O)CC1.O [Compound A, {4-cyano-4-[3-(cyclopentyloxy)-4-(difluoromethoxy)phenyl]piperidine-1-yl}acetic acid monohydrate]
number of eye scratching times (0.01% (W/V) suspension in 0.1% hydroxypropylmethylcellulose): 44.6 times | eye scratching behavior inhibition ratio (0.01% (W/V) suspension): 34.4% | number of eye scratching times (0.1% (W/V) suspension in 0.1% hydroxypropylmethylcellulose): 29.0 times | eye scratching behavior inhibition ratio (0.1% (W/V) suspension): 57.4% | number of eye scratching times compared to control (in words) (guinea pigs given 0.01% and 0.1% eye instillation, extent almost depends on concentration): decreases significantly compared to control
